Reference: patent publication US8802597B2, “Herbicidal pyrimidines” (E I du Pont de Nemours and Company, priority 2003, dated 2014)
Like-named read-outs stand apart in the source and are kept apart here.

What was measured:
Test in all cases: Test C pre/postemergence
Type in all cases: in vivo
[1] = tested on: lambsquarters (Chenopodium album); conditions: Chenopodium album; for pest or weed control at 62 g/ha: 62 g ai/ha; for pest or weed control at 125 g/ha: 125 g ai/ha; for pest or weed control at 250 g/ha: 250 g ai/ha; for pest or weed control at 500 g/ha: 500 g ai/ha
Outline: (§1)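 We sprayed seeded pots preemergence and 2–18 cm seedlings postemergence with test chemicals in a non-phytotoxic solvent mixture including surfactant. Greenhouse plants were visually compared with untreated controls at 12 to 14 days and scored 0 (no effect) to 100 (complete control).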

[2] = tested on: common (oilseed) sunflower (Helianthus annuus); conditions: Helianthus annuus, pre-emergence, Preemergence, read-out: Plant response rating, Sunflower
Outline: as §1

[3] = tested on: giant foxtail (Setaria faberii); conditions: Setaria faberi; for pest or weed control at 125 g/ha: 125 g ai/ha; for pest or weed control at 500 g/ha: 500 g ai/ha; for pest or weed control at 62 g/ha: 62 g ai/ha; for pest or weed control at 250 g/ha: 250 g ai/ha
Outline: as §1

[4] = tested on: johnsongrass (Sorghum halepense); conditions: Sorghum halepense; for pest or weed control at 62 g/ha: 62 g ai/ha; for pest or weed control at 125 g/ha: 125 g ai/ha; for pest or weed control at 250 g/ha: 250 g ai/ha; for pest or weed control at 500 g/ha: 500 g ai/ha
Outline: as §1

soybean (Glycine max) = conditions: Glycine max; for plant injury at 62 g/ha: 62 g ai/ha; for plant injury at 125 g/ha: 125 g ai/ha; for plant injury at 250 g/ha: 250 g ai/ha; for plant injury at 500 g/ha: 500 g ai/ha
Outline: as §1

[5] = tested on: eastern black nightshade (Solanum ptycanthum); conditions: Solanum, pre-emergence, Preemergence, read-out: Plant response rating, Nightshade
Outline: as §1

[6] = tested on: morningglory (Ipomoea coccinea); conditions: Ipomoea, post-emergence, Postemergence
Outline: as §1

[7] = post-emergence, Postemergence, scale 0 to 100 (0 no effect, 100 complete control), read-out: Lambsquarters plant response rating
[8] = post-emergence, Postemergence, scale 0 to 100, read-out: Plant response rating, Lambsquarters
[9] = pre-emergence, Preemergence, scale 0 to 100, read-out: Plant response rating, Lambsquarters
[10] = 62 g ai/ha, scale 0 to 100, 0 no effect, 100 complete control
[11] = post-emergence, Postemergence, scale 0 to 100 (0 no effect, 100 complete control), read-out: Foxtail, Giant plant response rating
[12] = post-emergence, Postemergence, scale 0 to 100, read-out: Plant response rating, Foxtail, Giant
[13] = pre-emergence, Preemergence, scale 0 to 100, read-out: Plant response rating, Foxtail, Giant
[14] = post-emergence, Postemergence, scale 0 to 100 (0 no effect, 100 complete control), read-out: Johnsongrass plant response rating
[15] = post-emergence, Postemergence, scale 0 to 100, read-out: Plant response rating, Johnsongrass
[16] = pre-emergence, Preemergence, scale 0 to 100, read-out: Plant response rating, Johnsongrass
[17] = post-emergence, Postemergence, scale 0 to 100 (0 no effect, 100 complete control), read-out: Soybean plant response rating
[18] = post-emergence, Postemergence, scale 0 to 100, read-out: Plant response rating, Soybean
[19] = pre-emergence, Preemergence, scale 0 to 100, read-out: Plant response rating, Soybean

CNc1nc(C2CC2)nc(C(=O)OC)c1Br [Compound 5]
pest or weed control at 62 g/ha [1, 7]: 95% | pest or weed control at 125 g/ha [1, 7]: 100% | pest or weed control at 250 g/ha [1, 8]: 100% | pest or weed control at 500 g/ha [1, 8]: 100% | pest or weed control at 62 g/ha ([1]; pre-emergence, Preemergence, scale 0 to 100, 0 no effect, 100 complete control, read-out: Plant response rating, Lambsquarters): 95% | pest or weed control at 125 g/ha [1, 9]: 95% | pest or weed control at 250 g/ha [1, 9]: 100% | pest or weed control at 500 g/ha [1, 9]: 100% | pest or weed control at 62 g/ha [2, 10]: 60% | pest or weed control at 125 g/ha ([2]; 125 g ai/ha, scale 0 to 100): 90% | pest or weed control at 250 g/ha ([2]; 250 g ai/ha, scale 0 to 100): 100% | pest or weed control at 500 g/ha ([2]; 500 g ai/ha, scale 0 to 100): 100% | pest or weed control at 125 g/ha [3, 11]: 30% | pest or weed control at 500 g/ha [3, 12]: 60% | pest or weed control at 62 g/ha [3, 11]: 20% | pest or weed control at 250 g/ha [3, 12]: 50% | pest or weed control at 62 g/ha ([3]; pre-emergence, Preemergence, scale 0 to 100, 0 no effect, 100 complete control, read-out: Plant response rating, Foxtail, Giant): 0% | pest or weed control at 125 g/ha [3, 13]: 0% | pest or weed control at 250 g/ha [3, 13]: 10% | pest or weed control at 500 g/ha [3, 13]: 60% | pest or weed control at 62 g/ha [4, 14]: 0% | pest or weed control at 125 g/ha [4, 14]: 40% | pest or weed control at 250 g/ha [4, 15]: 45% | pest or weed control at 500 g/ha [4, 15]: 45% | pest or weed control at 62 g/ha ([4]; pre-emergence, Preemergence, scale 0 to 100, 0 no effect, 100 complete control, read-out: Plant response rating, Johnsongrass): 5% | pest or weed control at 125 g/ha [4, 16]: 20% | pest or weed control at 250 g/ha [4, 16]: 60% | pest or weed control at 500 g/ha [4, 16]: 70% | plant injury at 62 g/ha (soybean (Glycine max); [17]): 95% | plant injury at 125 g/ha (soybean (Glycine max); [17]): 100% | plant injury at 250 g/ha (soybean (Glycine max); [18]): 100% | plant injury at 500 g/ha (soybean (Glycine max); [18]): 100% | plant injury at 62 g/ha (soybean (Glycine max); pre-emergence, Preemergence, scale 0 to 100, 0 no effect, 100 complete control, read-out: Plant response rating, Soybean): 85% | plant injury at 125 g/ha (soybean (Glycine max); [19]): 90% | plant injury at 250 g/ha (soybean (Glycine max); [19]): 98% | plant injury at 500 g/ha (soybean (Glycine max); [19]): 100% | pest or weed control at 62 g/ha [5, 10]: 100% | pest or weed control at 125 g/ha ([5]; 125 g ai/ha, scale 0 to 100): 100% | pest or weed control at 250 g/ha ([5]; 250 g ai/ha, scale 0 to 100): 100% | pest or weed control at 500 g/ha ([5]; 500 g ai/ha, scale 0 to 100): 100% | pest or weed control at 62 g/ha ([6]; 62 g ai/ha, scale 0 to 100 (0 no effect, 100 complete control), read-out: Morningglory plant response rating): 95% | pest or weed control at 125 g/ha ([6]; 125 g ai/ha, scale 0 to 100 (0 no effect, 100 complete control), read-out: Morningglory plant response rating): 95% | pest or weed control at 250 g/ha ([6]; 250 g ai/ha, scale 0 to 100, read-out: Plant response rating, Morningglory): 100% | pest or weed control at 500 g/ha ([6]; 500 g ai/ha, scale 0 to 100, read-out: Plant response rating, Morningglory): 100%
